Tests used:
NMDA receptor = details: (S)-ketamine versus (R)-ketamine; cited from earlier work
mice [1] = experiment: Accelerating rotarod (motor coordination); assay type: in vivo; details: 5-60 min post-injection, i.p.
Procedure: The rotarod test was conducted to compare the effects of ketamine, (2S,6S)-HNK and (2R,6R)-HNK on motor coordination. The experiment consisted of two phases: training phase (4 days) and a test phase (1 day). On each of the training days five trials (trial time: 3 min) were conducted with an inter-trial interval of two min Mice were individually placed on the rotarod apparatus (HTC Life Science; Woodland Hills, Calif., USA) and the rotor (3.75 inch diameter) accelerated from 5-20 RPM over a period of three minutes. Latency to fall was recorded for each trial. Animals with an average of <100 sec of latency to fall during the last training day were excluded from the experiment. On the test day (day 5), mice received (i.p.) injections of saline, (R,S)-KET (10 mg/kg), (2S,6S)-HNK (25 or 125 mg/kg) or (2R,6R)-HNK (2.5 or 125 mg/kg) and were tested in the rotating rod 5-. 10-, 15-, 20-, 30- and 60-min post-injection using the same procedure described for the training days.

[2] = Tissue distribution of ketamine and metabolites (plasma and brain levels)
Procedure: Mice were euthanized by a 30-sec exposure to 3% isoflurane and decapitated at 10, 30, 60, 240 or 480 minutes following drug administration. Trunk blood was collected in EDTA-containing tubes and centrifuged at 8000 rpm for 6 min (4° C.). Plasma was collected and stored at −80° C. until analysis. Whole brains were simultaneously collected, rinsed with phosphate-buffered saline, immediately frozen in dry ice and stored at −80° C. until analysis.
The concentrations of ketamine and its metabolites in plasma and brain tissue were determined by achiral liquid chromatography-tandem mass spectrometry. For plasma samples, the calibration standards for (R,S)-ketamine, (R,S)-norketamine, (2R,6R;2S,6S)-HNK and (R,S)-DHNK ranged from 10,000 ng/ml to 19 ng/ml. The quantification of (R,S)-ketamine, (R,S)-norketamine, (R,S)-DHNK, and the HNK stereoisomers was accomplished by calculating area ratios using D4-ketamine (10 μl of 10 μg/ml solution) as the internal standard. Whole brains were suspended in 990 μl of water:methanol (3:2, v/v), D4-ketamine (10 μl of 10 μg/ml) added and the resulting mixture homogenized on ice with a polytron homogenizer and centrifuged at 21,000×g for 30 min. The supernatant was collected and processed using 1 ml Oasis HLB solid phase extraction cartridges (Waters Corp., Waltham, Mass.). The cartridges were preconditioned with 1 ml of methanol, followed by 1 ml of water and then 1 ml ammonium acetate [10 mM, pH 9.5]. The supernatants were added to the cartridges, followed by 1 ml of water and the compounds were eluted with 1 ml of methanol. The eluent was transferred to an autosampler vial for analysis. QC standards for the analysis of (R,S)-ketamine, (R,S)-norketamine, (R,S)-DHNK and (2R,6R;2S,6S)-HNK ranged from 10,000 ng/ml to 19 ng/ml, and quantification was accomplished using D4-(R,S)-ketamine as the internal standard. QC standards were prepared daily by adding 10 μl of the appropriate standard solution and 10 μl of internal standard solution (100 ng/ml) to methanol.

mice [3] = experiment: Open field test (locomotor activity); assay type: in vivo; details: 1 hour after i.p. drug
Procedure: Mice were placed into individual open-field arenas (50 cm length×50 cm width×38 cm height; San Diego Instruments, San Diego, Calif., USA) for a 60-min habituation period. Mice were then injected with the respective drug and assessed for locomotor activity for another 60 min. Distance travelled was analyzed using TopScan v2.0 (CleverSys, Inc, Reston, Va., USA).

male CD-1 mice [4] = experiment: Learned helplessness (LH); assay type: in vivo; details: single injection; for antidepressant-like effect in learned helplessness (escape failures): test 24 hours after administration
Source text: (§1) Male CD-1 mice (8-10 weeks old, Charles River Laboratories, Mass., USA) were housed in groups of four-five per cage with a constant 12-hour light/dark cycle (lights on/off at 07:00/19:00). Food and water were available ad libitum. Mice acclimatized to the new environment for seven days prior to the start of the experiments. For the whole-cell NMDA current electrophysiological recordings, male Sprague-Dawley rats (housed three per cage; Charles River, Wilmington, Mass.) were used. EPSC recording were done from rats at postnatal day 24-25. All experimental procedures were approved by the University of Maryland, Baltimore Animal Care and Use Committee and were conducted in full accordance with the National Institutes of Health Guide for the Care and Use of Laboratory Animals.
The LH paradigm consisted of three different phases, i.e., inescapable shock training, LH screening, and the LH test. For the inescapable shock portion of the test (Day 1), the animals were placed in one side of two-chambered shuttle boxes (34 cm height×37 cm width×18 cm depth; Coulbourn Instruments, PA, USA), with the door between the chambers closed. Following a five-min adaptation period, 120 inescapable foot-shocks (0.45 mA, 15 sec duration, randomized average inter-shock interval of 45 sec) were delivered through the grid floor. During the screening session (Day 2), the mice were placed in one of the two chambers of the apparatus for 5 min. A shock (0.45 mA) was then delivered, and the door between the two chambers was raised simultaneously. Crossing over into the second chamber terminated the shock. […] A total of 30 screening trials of escapable shocks were presented to each mouse with an average of 30 sec delay between each trial. Mice that developed helplessness behavior (>5 escape failures during the last 10 screening shocks) were administered with the respective drug 24 hours following screening (Day 3). During the LH test phase (Day 4), the animals were placed in the shuttle boxes and, after a 5-min adaptation period, a 0.45 mA shock was delivered concomitantly with door opening for the first five trials, followed by a 2-sec delay for the next 40 trials. Crossing over to the second chamber terminated the shock. […] A total of 45 trials of escapable shock were presented to each mouse with 30 sec inter-trial intervals. The number of escape failures was recorded for each mouse.

male CD-1 mice [5] = experiment: Forced-swim test (FST); assay type: in vivo; details: 1- and 24-hours post-injection, times not separated, i.p.
Source text: as §1
Mice were tested in the FST 1 hour and/or 24 hours post-injection. During the FST, mice were subjected to a 6-min swim session in clear Plexiglass cylinders (30 cm height×20 cm diameter) filled with 15 cm of water (23±1° C.). The FST was performed in normal light conditions (800 Lux). Sessions were recorded using a digital video-camera. Immobility time, defined as passive floating with no additional activity other than that necessary to keep the animal's head above water, was scored for the last 4 min of the 6-min test by a trained observer blind to the treatment.
All drugs were dissolved in 0.9% saline, and administered intraperitoneally (i.p.) in a volume of 7.5 ml/kg of body mass. Corticosterone (4-pregnen-11β, 21-diol-3, 20-dione 21-hemisuccinate; Steraloids, Newport, R.I., USA) was dissolved in tap water. For the electrophysiology recordings, test drugs were diluted in artificial cerebrospinal fluid (AC SF).

male CD-1 mice [6] = experiment: Novelty-suppressed feeding (NSF); assay type: in vivo; details: i.p.
Source text: as §1
Mice were singly housed and food-deprived for twenty-four hours in freshly-made home-cages. Two normal chow diet pellets were placed on a square food platform (10×10 cm) in the center of an open-field arena (40×40 cm). […] The time needed for the mice to take a bite of food was recorded over a 10 min period by a trained observer blind to the treatment groups. After the test, the mice were returned to their home cage containing pre-weighed food pellets, and latency to bite the food as well as consumption was recorded for a period of 10 min.

[7] = plasma of humans; cited from earlier work

## CN[C@]1(c2ccccc2Cl)CCCCC1=O [(S)-ketamine]
NMDA receptor
  potency as inhibitor of the NMDA receptor relative to (R)-ketamine: ~4 fold

## N[C@]1(c2ccccc2Cl)CCC[C@H](O)C1=O [(2S,6S)-HNK, (2S,6S)-2-amino-2-(2-chlorophenyl)-6-hydroxycyclohexanone]
Mice [1]
  motor coordination in the rotarod: motor incoordination
Mice [1]; listed as (2S,6R)-HNK
  motor coordination in the rotarod: induced motor incoordination
[2]; brain
  brain hydroxynorketamine levels after administration of (2S,6S)-HNK versus (2R,6R)-HNK: higher brain hydroxynorketamine levels compared to (2R,6R)-HNK
Mice [3]
  locomotor activity in the open-field test: increased locomotor activity
Mice [3]; listed as (2S,6S)-hydroxynorketamine
  locomotor activity in the open-field test: dose-dependently changed locomotor activity
Male CD-1 mice [4]
  doses with antidepressant-like effects in learned helplessness: 75 mg/kg
  antidepressant-like effect in learned helplessness (escape failures): induced antidepressant-like effects

## CN[C@@]1(c2ccccc2Cl)CCCCC1=O [(R)-ketamine, reference compound]
Male CD-1 mice [5]
  antidepressant effect in the FST (immobility time): greater potency
[2]; brain, after (S)- and (R)-KET
  brain levels of (R)-ketamine compared to (S)-ketamine: does not result from higher brain levels
Male CD-1 mice [6]
  antidepressant-like effect in novelty-suppressed feeding (latency to feed): greater potency
Male CD-1 mice [4]
  antidepressant-like effect in learned helplessness (escape failures): greater potency

## N[C@@]1(c2ccccc2Cl)CCC[C@@H](O)C1=O [(2S,6S;2R,6R)-HNK, (2S,6S;2R,6R)-hydroxynorketamine]
[2]; brain
  brain levels following ketamine administration, female mice compared to males: three fold higher
[2]; mice, (R,S)-KET 10 mg/kg i.p.
  metabolite found in plasma and brain following ketamine administration: major HNK metabolite
[7]
  metabolite found in plasma following ketamine administration: major HNK metabolite

Reference: patent publication US20190083420A1, “METHODS OF USING (2R, 6R)-HYDROXYN[…] (2S, 6S)-HYDROXYN[…] THE TREATMENT OF DEPRESSION, ANXIETY, ANHEDONIA, FATIGUE, SUICIDAL IDEATION, AND POST TRAUMATIC STRESS DISORDERS” (The Uinited States of America, as represented by the …, priority 2016, published 2019)
